From patent US20240057598A1, “USE OF 2-AMINO-3-METHYLHEXANOIC ACID AS PLANT IMMUNITY INDUCER” (NANJING AGRICULTURAL UNIVERSITY, priority 2020, published 2024)

Assays:
wheat = assay: Induced resistance of wheat to drought stress (25% PEG-6000); format: in vivo; conditions: for Drought injury index / Dry weight Overground part / Dry weight Underground part / Fresh weight Overground part / Fresh weight Underground part / Length of root: wheat, 25% PEG-6000 6 days, 7 days recovery
Description: Wheat was cultured in water in a 6-mesh sieve used as a container according to 50 grains per sieve, and ½ Hoagland nutrient solution was changed every three days. When the wheat grew to the stage of two leaves and one bud, the leaf surface was sprayed with 2-amino-3-methylhexanoic acid solutions, the concentration of the 2-amino-3-methylhexanoic acid was 0, 100 and 1,000 nM, and 0.02% Tween 20 was added as a surfactant. After two days of continuous spraying, the water culture nutrient solution was replaced with ½ Hoagland nutrient solution containing 25% PEG-6000 on the 3rd day for stress treatment. After 6 days of drought stress, rehydration treatment was conducted. After 7 days of recovery growth in a normal nutrient solution, the drought index was observed and determined, and the root length and biomass were determined.
The performance characteristics of drought injury of leaves are similar to those of salt injury. The drought injury rate and the drought injury index were introduced by using the evaluation indexes of salt injury. The formula for calculating the drought injury index is as follows, and the grading standard of drought injury is shown in Table 11.

tea variety Longjing 43 = assay: Field test: resistance of tea plants to high temperature and tea quality; format: in vivo; conditions: for Amino acid content: 5th day after use, tea leaves under high temperature stress; for Heat injury rate: 10th day after use, field; for PIABS: field heat stress
Description: In August 2020, a field test was conducted in the Sun Yat-sen Mausoleum Tea Garden in Nanjing, and the tea variety was Longjing 43. During the test, the actual temperature of the field was 37.6° C.-45.1° C., the concentration of 2-amino-3-methylhexanoic acid was 0, 10, 100, 1,000 and 10,000 nM, and 0.02% Tween 20 was added as a surfactant. Three repetitions were set for each treatment group. In a plot area of 20 m^2, the liquid spraying volume per plot was 2 L. The pesticide was applied to the field three times on August 6, August 8 and Aug. 15, 2020 respectively. On the 3rd, 7th and 14th days after the last use of the pesticide, the phenotype of a tea tree was observed, and a leaf and a bud were sampled from the top of the tea tree. 15 leaves were taken for each treatment group, and the chlorophyll fluorescence parameter PIABS ([…]) of tea leaves was determined with a plant efficiency analyzer Handy-PEA. Samples were taken and the total amino acid content in tea leaves was determined on the 5th day after use of the pesticide, and the heat injury rate was calculated on the 10th day after use of the pesticide.

ryegrass = assay: Induced resistance of ryegrass to high temperature stress; format: in vivo; conditions: for Dry weight of overground part / Fresh weight of overground part / Heat injury index: 45° C. 12 h, 7 days recovery
Description: 2-amino-3-methylhexanoic acid was dissolved in distilled water and diluted with distilled water into solutions of 1 nM, 10 nM, 100 nM and 1,000 nM by gradient. A blank control was additionally set, and 0.02% Tween 20 was added as a surfactant. 4 groups of repetitions were set for each concentration, and a normal temperature blank control was set at the same time. Ryegrass seeds were weighed according to 0.8 g per pot, sowed in a pot with a diameter of 8.5 cm, and planted in a greenhouse at a temperature of 25° C., a humidity of 60%-70%, and a light intensity of 200 μmolm^−2s^−1 (12 h light/12 h dark). On the 8th day of the seedling stage, the ryegrass was sprayed with the 2-amino-3-methylhexanoic acid solutions on the leaves twice in 24 h. 24 h after the second treatment, the plants were transferred to a light incubator at a temperature of 45° C. for conducting high temperature stress treatment for 12 h, and then the plants were taken out and transferred to a greenhouse at a temperature of 25° C. for 7 days of recovery. The injured conditions of the plants were observed and counted, and the heat injury grade was calculated. […] After the counting, the fresh weight of the aboveground part of the plant was weighed, and then the aboveground part was baked in an 85° C. oven for 48 h to determine the dry weight.

E. coli B = conditions: cited from earlier work
S. marcescens = conditions: cited from earlier work
[1] = 1,000 nM, wheat seedlings, drought stress
[2] = 100 nM, compared with untreated control group

## CCCC(C)C(N)C(=O)O (stereo not drawn) [2-amino-3-methylhexanoic acid]
wheat; 100 nM
  Drought injury index: 50%
  Dry weight Overground part: 0.79 ± 0.01a
  Dry weight Underground part: 0.34 ± 0.02a
  Fresh weight Overground part: 6.71 ± 0.69b
  Fresh weight Underground part: 3.48 ± 0.40a
  Length of root: 13.83 ± 0.26b
wheat; [1]
  Decrease of drought index: 36%
  Increase of dry weight of aboveground part: 10.00%
  Increase of dry weight of underground part: 18.75%
  Increase of fresh weight of aboveground part: 35.82%
  Increase of fresh weight of underground part: 34.33%
  Increase of root length compared with control group: 6%
wheat; 1,000 nM
  Drought injury index: 30%
  Dry weight Overground part: 0.88 ± 0.05a
  Dry weight Underground part: 0.38 ± 0.02a
  Fresh weight Overground part: 8.72 ± 0.59a
  Fresh weight Underground part: 4.46 ± 0.01a
  Length of root: 14.50 ± 0.27a
Tea variety Longjing 43; 10 nM
  Amino acid content: 2.03 ± 0.05b % DW
Tea variety Longjing 43; 10 nM, tea leaves
  Heat injury rate: 30%
Tea variety Longjing 43; 10 nM, 3 d after last use, tea leaves
  PIABS: 6.25 ± 0.51c
Tea variety Longjing 43; 10 nM, 7 d after last use, tea leaves
  PIABS: 6.43 ± 0.44b
Tea variety Longjing 43; 10 nM, 14 d after last use, tea leaves
  PIABS: 14.44 ± 0.59c
Tea variety Longjing 43; 10 nM, high temperature stress
  Increase of total amino acid content versus control group: 22%
Tea variety Longjing 43; 100 nM
  Amino acid content: 2.21 ± 0.32a % DW
Tea variety Longjing 43; 100 nM, tea leaves
  Heat injury rate: 17%
Tea variety Longjing 43; 100 nM, 3 d after last use, tea leaves
  PIABS: 8.26 ± 0.63b
Tea variety Longjing 43; 100 nM, 7 d after last use, tea leaves
  PIABS: 8.07 ± 0.36a
Tea variety Longjing 43; 100 nM, 14 d after last use, tea leaves
  PIABS: 19.29 ± 0.95b
Tea variety Longjing 43; 100 nM, high temperature stress
  Increase of total amino acid content versus control group: 33%
Tea variety Longjing 43; 1,000 nM
  Amino acid content: 2.20 ± 0.05a % DW
Tea variety Longjing 43; 1,000 nM, tea leaves
  Heat injury rate: 15%
Tea variety Longjing 43; 1,000 nM, 3 d after last use, tea leaves
  PIABS: 8.48 ± 0.61ab
Tea variety Longjing 43; 1,000 nM, 7 d after last use, tea leaves
  PIABS: 8.14 ± 0.70a
Tea variety Longjing 43; 1,000 nM, 14 d after last use, tea leaves
  PIABS: 19.85 ± 1.04ab
Tea variety Longjing 43; 1,000 nM, high temperature stress
  Increase of total amino acid content versus control group: 33%
Tea variety Longjing 43; 10,000 nM, 3rd day after use
  PIABS higher than control group: 108%
Tea variety Longjing 43; 10,000 nM
  Amino acid content: 2.23 ± 0.08a % DW
Tea variety Longjing 43; 10,000 nM, 7th day after use
  PIABS higher than control group: 48%
Tea variety Longjing 43; 10,000 nM, tea leaves
  Heat injury rate: 14%
Tea variety Longjing 43; 10,000 nM, 14th day after use
  PIABS higher than control group: 52%
Tea variety Longjing 43; 10,000 nM, 3 d after last use, tea leaves
  PIABS: 8.68 ± 0.56a
Tea variety Longjing 43; 10,000 nM, 7 d after last use, tea leaves
  PIABS: 8.36 ± 0.51a
Tea variety Longjing 43; 10,000 nM, 14 d after last use, tea leaves
  PIABS: 21.97 ± 0.88a
Tea variety Longjing 43; 10,000 nM, high temperature stress
  Increase of total amino acid content versus control group: 34%
Tea variety Longjing 43; tea leaves, high temperature stress
  Optimum use concentration (accumulation of amino acids in tea leaves): 100 nM
ryegrass
  Optimal use concentration to alleviate high temperature stress: 100 nM
ryegrass; 1 nM
  Dry weight of overground part: 0.4 ± 0.01bc g
  Fresh weight of overground part: 1.96 ± 0.19b g
  Heat injury index: 70%
ryegrass; 10 nM
  Dry weight of overground part: 0.46 ± 0.04ab g
  Fresh weight of overground part: 2.14 ± 0.095 g
  Heat injury index: 60%
ryegrass; 100 nM
  Dry weight of overground part: 0.44 ± 0.02nb g
  Fresh weight of overground part: 2.60 ± 0.02b g
  Heat injury index: 30%
ryegrass; [2]
  Increase of dry weight of aboveground part: 25%
  Increase of fresh weight of aboveground part: 162%
ryegrass; 1,000 nM
  Dry weight of overground part: 0.45 ± 0.01ab g
  Fresh weight of overground part: 2.42 ± 0.15b g
  Heat injury index: 30%
E. coli B
  Inhibitory effect: slight inhibitory effect
S. marcescens
  Inhibitory effect: no inhibitory effect
